Results: ChEMBL document CHEMBL3112458, “A biochemical screen for GroEL/GroES inhibitors” (Bioorg Med Chem Lett, 2014)

Columns and labels:
[1] = target: T1, E. coli GroEL/ES (Escherichia coli, UniProt P0A6F5); test: Inhibition of Escherichia coli GroEL/GroES expressed in Escherichia coli DH5alpha/BL21 (DE3) assessed as inhibition of denatured MDH refolding preincubated for 10 mins followed by ATP addition measured after 2 hrs by fluorescence based assay
[2] = target: T1, E. coli GroEL/ES; test: Inhibition of Escherichia coli GroEL/GroES-ATPase activity expressed in Escherichia coli DH5alpha/BL21 (DE3) assessed as inhibition of denatured MDH refolding preincubated for 10 mins followed by ATP addition measured after 2 hrs by fluorescence based assay
[3] = Inhibition of pig heart MDH using […] as substrate; parameters: species or system Sus scrofa

T1 sequence (P0A6F5 whole entry, looked up): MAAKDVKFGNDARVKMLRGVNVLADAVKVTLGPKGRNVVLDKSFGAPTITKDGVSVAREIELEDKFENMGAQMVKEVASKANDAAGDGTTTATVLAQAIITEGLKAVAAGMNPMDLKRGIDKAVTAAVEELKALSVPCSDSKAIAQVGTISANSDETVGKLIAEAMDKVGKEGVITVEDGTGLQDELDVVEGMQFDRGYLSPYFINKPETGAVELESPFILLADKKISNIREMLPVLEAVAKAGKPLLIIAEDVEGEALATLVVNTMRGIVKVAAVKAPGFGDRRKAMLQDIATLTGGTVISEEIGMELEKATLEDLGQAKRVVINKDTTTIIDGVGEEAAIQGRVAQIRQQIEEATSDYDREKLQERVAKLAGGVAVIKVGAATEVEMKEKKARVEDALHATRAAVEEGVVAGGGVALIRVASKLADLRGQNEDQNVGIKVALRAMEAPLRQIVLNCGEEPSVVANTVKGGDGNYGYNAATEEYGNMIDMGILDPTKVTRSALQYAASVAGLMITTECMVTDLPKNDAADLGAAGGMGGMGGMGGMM

SMILES	IC50 [1] [µM]	IC50 [2] [µM]	IC50 [3] [µM]
O=C1/C(=C/c2ccc(O)c(O)c2)SC(=S)N1c1ccc(O)cc1	0.99	3.3	> 62.5
CNC(=O)Nc1ccc2nc(-c3ccco3)c(-c3ccco3)nc2c1	5.4	> 250	> 62.5
O=C1NC(=S)N(c2ccc(F)cc2)C(=O)/C1=C/c1ccco1	1.2	25	20
Cc1ccc(/C=C2/SC(=S)N(c3ccc(C(=O)O)c(O)c3)C2=O)o1	6.1	48	> 62.5
O=c1/c(=C/c2ccc(O)c(O)c2)sc2nc3ccccc3n12	1.3	9.8	> 62.5
Cc1ccc(-c2ccc(NC(=O)/C=C/c3ccco3)cc2)o1	> 100	> 250	> 62.5
COc1ccc(C(=O)N/N=C/c2ccc(O)c3ncccc23)cc1	70	> 250	> 62.5
O=C(CC1Nc2cccc3cccc(c23)NC1=O)Nc1cccc([N+](=O)[O-])c1 (stereo not given)	97	52	> 62.5
CNC(=O)Oc1c(Br)cc2sc(=O)oc2c1Br	35	236	> 62.5
CC(=O)c1cc2c(cc1NC(=O)c1ccccc1Br)OCCO2	> 100	> 250	> 62.5
Nc1ccc(Nc2nc(-c3ccc(O)c(O)c3)cs2)cc1	5.9	23	> 62.5
Oc1ccc(NCn2nnc3ccccc32)cc1	55	130	> 62.5
O=C1NC(=S)N(Cc2ccco2)C(=O)/C1=C\c1ccc(-c2ccc([N+](=O)[O-])cc2)o1	0.7	150	19
Cc1ccc(S(=O)(=O)Nc2ccc(-c3nc4ccc(NS(=O)(=O)c5ccc(C)cc5)cc4[nH]3)cc2)cc1	0.11	0.06	> 62.5
Nc1nnc(SCC(=O)c2ccc(-c3ccccc3)cc2)s1	> 100	> 250	> 62.5
O=C(NCCO)Nc1ccc2nc(-c3ccco3)c(-c3ccco3)nc2c1	23	> 250	> 62.5
Cn1c(=O)c(C(=O)Nc2ccncc2)c(O)c2ccccc21	7.3	> 250	> 62.5
COc1cccc(/C=C2/SC(=S)N(CCC(=O)Nc3ccc(O)cc3)C2=O)c1	33	> 250	> 62.5

SMILES	IC50 [1] [µM]	IC50 [2] [µM]	IC50 [3] [µM]
O=C(/C=C/c1cccc([N+](=O)[O-])c1)c1ccc(NC(=O)c2ccco2)cc1	1.8	> 250	> 62.5
O=C(O)c1ccc(-c2nc(-c3ccc(-c4ccc(-c5nc(-c6ccc(C(=O)O)cc6)[nH]c5-c5ccccc5)cc4)cc3)c(-c3ccccc3)[nH]2)cc1	0.44	25	57
O=C(Nc1cc([N+](=O)[O-])ccc1O)c1ccc2c(c1)C(=O)N(Cc1ccccc1)C2=O	52	> 250	> 62.5
O=c1c([N+](=O)[O-])c(Cl)c2ccccc2n1Cc1ccccc1	8.8	> 250	> 62.5
COc1cc(/C=C2/C(=N)N3N=C(CC(C)C)SC3=NC2=O)ccc1OC(=O)c1ccc(F)cc1	> 100	> 250	> 62.5
O=C(O)c1cccc2c1NC(c1ccccc1F)C1CC=CC21 (stereo not given)	9.1	95	> 62.5
O=C(O)C1Nc2ccc(Cl)cc2C2C=CCC12 (stereo not given)	2.7	68	> 62.5
CCOc1ccc(N2C(=O)NC(=O)/C(=C/c3ccc(O)c(O)c3)C2=O)cc1	24	217	> 62.5
O=C(Nc1ccc(Sc2nc3ccccc3s2)c(Cl)c1)c1cc(Br)cc(Br)c1O	1.7	13	5.5
Cc1ccc(C)n1-c1ccc(O)c(C(=O)O)c1	0.62	> 250	> 62.5
O=C(/C=C/c1ccc([N+](=O)[O-])cc1)c1ccc(O)c(O)c1	2.4	71	> 62.5
CN(C)c1ccc(/C=C2/C(=O)NC(=S)N(Cc3ccco3)C2=O)cc1	5.9	169	> 62.5
O=C(/C=C/c1ccco1)c1ccc(NC(=O)c2cccs2)cc1	17	157	> 62.5
O=C(O)c1cccc2c1NC(c1cccc(Br)c1)C1CC=CC21 (stereo not given)	2.7	44	50
O=c1[nH]nc2cc(O)c3ccccc3n12	11	> 250	> 62.5
COC(=O)c1ccc(-c2ccc(/C=C3/SC(=S)NC3=O)o2)cc1	8.4	131	> 62.5
O=C(Nc1ccc2nc(-c3ccco3)c(-c3ccco3)nc2c1)N1CCCC1	14	> 250	> 62.5
